Measurements published in patent US5100785A, “Polycyclic ether antibiotic” (Pfizer Inc., priority 1984, dated 1992).

Legend:
E. brunetti = test: in vivo anticoccidial activity in chickens, E. brunetti; settings: diet of chickens, 25 to 150 ppm
E. maxima = test: in vivo anticoccidial activity in chickens, E. maxima; settings: diet of chickens, 25 to 150 ppm
Eimeria tenella = test: in vivo anticoccidial activity in chickens, Eimeria tenella; settings: for AVERAGE DEGREE OF INFECTION / WEIGHT GAIN (PERCENT): chickens, after six days
E. necatrix = test: in vivo anticoccidial activity in chickens, E. necatrix; settings: diet of chickens, 25 to 150 ppm
rumen fluid = test: in vitro rumen technique, propionic acid production; settings: 39° C., about 16 hours; for increase in the production of propionic acid over control: 10 micrograms per milliliter, experiment with UK-58,852; for increase in propionic acid production: 10 mcg/ml., separate experiment with CP-70,228
Eimeria acervulina = test: in vivo anticoccidial activity in chickens, Eimeria acervulina; settings: for AVERAGE DEGREE OF INFECTION / WEIGHT GAIN (PERCENT): chickens, after five days
[1] = tested on: Enterobacteriaceae aerogenes; test: in vitro antibacterial activity (MIC), Enterobacteriaceae aerogenes; type: cell-based; settings: gram-negative; 24 hours
Procedure: (§1) In Table I, below, the results of in vitro tests are summarized. For this test each organism is innoculated in a series of test tubes containing nutrient medium and varying concentrations of Antibiotic UK-58,852 to determine the minimal concentration of the compound in mcg./ml. which inhibits the growth of the organism over a period of 24 hours (MIC).

Klebsiella pneumoniae = test: in vitro antibacterial activity (MIC), Klebsiella pneumoniae; type: cell-based; settings: gram-negative; 24 hours
Procedure: as §1

Pasteurella multocida = test: in vitro antibacterial activity (MIC), Pasteurella multocida; type: cell-based; settings: strain 59A006; 24 hours
[2] = tested on: Actinobacillus pleuropneumoniae; test: in vitro antibacterial activity (MIC), Actinobacillus pleuropneumoniae; type: cell-based; settings: 24 hours
Escherischia coli = test: in vitro antibacterial activity (MIC), Escherischia coli; type: cell-based; settings: gram-negative; 24 hours
Procedure: as §1

Streptococcus pyogenes = test: in vitro antibacterial activity (MIC), Streptococcus pyogenes; type: cell-based; settings: strain 020303; 24 hours
Bacteroides fragilis = test: in vitro antibacterial activity (MIC), Bacteroides fragilis; type: cell-based; settings: strain 78C024; 24 hours
Serratia marcescens = test: in vitro antibacterial activity (MIC), Serratia marcescens; type: cell-based; settings: gram-negative; 24 hours
Procedure: as §1

Streptococcus faecalis = test: in vitro antibacterial activity (MIC), Streptococcus faecalis; type: cell-based; settings: strain 02A006; 24 hours
Treponema hyodysenteriae = test: in vitro antibacterial activity (MIC), Treponema hyodysenteriae; type: cell-based; settings: strain 94A007; 24 hours
Actinomyces pyogenes = test: in vitro antibacterial activity (MIC), Actinomyces pyogenes; type: cell-based; settings: strain 14D011; 24 hours
Staphylococcus aureus = test: in vitro antibacterial activity (MIC), Staphylococcus aureus; type: cell-based; settings: 24 hours
Procedure: as §1

Pseudomonas aeruginosa = test: in vitro antibacterial activity (MIC), Pseudomonas aeruginosa; type: cell-based; settings: gram-negative; 24 hours
Procedure: as §1

[3] = tested on: Fusobacterium necrophorum; test: in vitro antibacterial activity (MIC), Fusobacterium necrophorum; type: cell-based; settings: strain 84C004; 24 hours
Clostridium perfringens = type: cell-based; settings: strain 10A009; 24 hours
[4] = diet of chickens, 25 to 150 ppm

## COC1CCC(OC2CC(C3OC(C)(O)C(C)CC3C)OC2C2(C)CCC(C3(C)CCC4(CC(O)C(C)C(C(C)C5OC(O)(CC(=O)O)C(C)C(OC6CCC(OC)C(C)O6)C5OC)O4)O3)O2)OC1C (centres unmarked) [UK-58,852]
E. brunetti
  controlling infections due to E. brunetti: effective
E. maxima
  controlling infections due to E. maxima: effective
Eimeria tenella; 25 ppm in feed
  AVERAGE DEGREE OF INFECTION: 0.0
  WEIGHT GAIN (PERCENT): 93%
Eimeria tenella; 50 ppm in feed
  AVERAGE DEGREE OF INFECTION: 0.0
  WEIGHT GAIN (PERCENT): 45%
Eimeria tenella; 75 ppm in feed
  AVERAGE DEGREE OF INFECTION: 0.0
  WEIGHT GAIN (PERCENT): 28%
Eimeria tenella; 100 ppm in feed
  AVERAGE DEGREE OF INFECTION: 0.0
  WEIGHT GAIN (PERCENT): 8%
Eimeria tenella; 125 ppm in feed
  AVERAGE DEGREE OF INFECTION: 0.0
  WEIGHT GAIN (PERCENT): 4%
Eimeria tenella; 150 ppm in feed
  AVERAGE DEGREE OF INFECTION: 0.0
  WEIGHT GAIN (PERCENT): 0%
Eimeria tenella; [4]
  controlling infections due to Eimeria tenella: effective
E. necatrix
  controlling infections due to E. necatrix: effective
Rumen fluid
  increase in the production of propionic acid over control: about 93%
Eimeria acervulina; 25 ppm in feed
  AVERAGE DEGREE OF INFECTION: 0.0
  WEIGHT GAIN (PERCENT): 98%
Eimeria acervulina; 50 ppm in feed
  AVERAGE DEGREE OF INFECTION: 0.0
  WEIGHT GAIN (PERCENT): 62%
Eimeria acervulina; 75 ppm in feed
  AVERAGE DEGREE OF INFECTION: 0.0
  WEIGHT GAIN (PERCENT): 0%
Eimeria acervulina; 100 ppm in feed
  AVERAGE DEGREE OF INFECTION: 0.0
  WEIGHT GAIN (PERCENT): 23%
Eimeria acervulina; 125 ppm in feed
  AVERAGE DEGREE OF INFECTION: 0.0
  WEIGHT GAIN (PERCENT): 0%
Eimeria acervulina; 150 ppm in feed
  AVERAGE DEGREE OF INFECTION: 0.0
  WEIGHT GAIN (PERCENT): 0%
Eimeria acervulina; [4]
  controlling infections due to E. acervulina: effective

## COC1CCC(OC2CC(C3OC(C)(OC)C(C)CC3C)OC2C2(C)CCC(C3(C)CCC4(CC(O)C(C)C(C(C)C5OC(O)(CC(=O)[O-])C(C)C(OC6CCC(OC)C(C)O6)C5OC)O4)O3)O2)OC1C.[Na+] (centres unmarked) [CP-70,228 Sodium Salt]
[1]
  MIC: > 50 µg/mL
Klebsiella pneumoniae
  MIC: > 50 µg/mL
Pasteurella multocida
  MIC: > 100 µg/mL
[2]; strain 54B004
  MIC: > 100 µg/mL
Escherischia coli
  MIC: > 50 µg/mL
Streptococcus pyogenes
  MIC: 0.10 µg/mL
Bacteroides fragilis
  MIC: 12.5 µg/mL
Serratia marcescens
  MIC: > 50 µg/mL
Streptococcus faecalis
  MIC: 50 µg/mL
Treponema hyodysenteriae
  MIC: 1.58 µg/mL
Actinomyces pyogenes
  MIC: 0.34 µg/mL
Staphylococcus aureus; strain 01A005
  MIC: 3.12 µg/mL
Staphylococcus aureus; strain 01A052
  MIC: 3.12 µg/mL
Staphylococcus aureus; strain 01A110
  MIC: 3.12 µg/mL
Staphylococcus aureus; strain 01A400
  MIC: 6.25 µg/mL
Pseudomonas aeruginosa
  MIC: > 50 µg/mL
[3]
  MIC: > 100 µg/mL

## CC[C@@H](C(=O)[C@@H](C)[C@@H](O)[C@H](C)[C@@H]1O[C@@H]([C@@H](CC)C(=O)O)CC[C@@H]1C)[C@H]1O[C@]2(C=C[C@@H](O)[C@]3(CC[C@@](C)([C@H]4CC[C@](O)(CC)[C@H](C)O4)O3)O2)[C@H](C)C[C@@H]1C [salinomycin, reference compound]
Rumen fluid
  increase in propionic acid production: about 40%
  increase in the production of propionic acid over control: ~88%

## COC1CCC(OC2CC(C3OC(C)(OC)C(C)CC3C)OC2C2(C)CCC(C3(C)CCC4(CC(O)C(C)C(C(C)C5OC(O)(CC(=O)O)C(C)C(OC6CCC(OC)C(C)O6)C5OC)O4)O3)O2)OC1C (centres unmarked) [CP-70,228]
Eimeria tenella; 25 ppm in feed
  AVERAGE DEGREE OF INFECTION: 2.7
  WEIGHT GAIN (PERCENT): 80%
Eimeria tenella; 50 ppm in feed
  AVERAGE DEGREE OF INFECTION: 1.3
  WEIGHT GAIN (PERCENT): 103%
Eimeria tenella; 75 ppm in feed
  AVERAGE DEGREE OF INFECTION: 0.3
  WEIGHT GAIN (PERCENT): 63%
Eimeria tenella; 100 ppm in feed
  AVERAGE DEGREE OF INFECTION: 0.0
  WEIGHT GAIN (PERCENT): 95%
Rumen fluid
  increase in propionic acid production: about 30%
Eimeria acervulina; 25 ppm in feed
  AVERAGE DEGREE OF INFECTION: 1.2
  WEIGHT GAIN (PERCENT): 40%
Eimeria acervulina; 50 ppm in feed
  AVERAGE DEGREE OF INFECTION: 0.0
  WEIGHT GAIN (PERCENT): 70%
Eimeria acervulina; 75 ppm in feed
  AVERAGE DEGREE OF INFECTION: 0.0
  WEIGHT GAIN (PERCENT): 100%
Eimeria acervulina; 100 ppm in feed
  AVERAGE DEGREE OF INFECTION: 0.0
  WEIGHT GAIN (PERCENT): 100%

## COC1CCC(OC2CC(C3OC(C)(O)C(C)CC3C)OC2C2(C)CCC(C3(C)CCC4(CC(O)C(C)C(C(C)C5OC(O)(CC(=O)[O-])C(C)C(OC6CCC(OC)C(C)O6)C5OC)O4)O3)O2)OC1C.[Na+] (centres unmarked) [UK-58,852 (sodium salt)]
[1]
  MIC: > 50 µg/mL
Klebsiella pneumoniae
  MIC: > 50 µg/mL
Pasteurella multocida
  MIC: > 200 µg/mL
[2]; strain 44B004
  MIC: > 25 µg/mL
Escherischia coli
  MIC: > 50 µg/mL
Streptococcus pyogenes
  MIC: 0.05 µg/mL
Bacteroides fragilis
  MIC: 0.10 µg/mL
Serratia marcescens
  MIC: > 50 µg/mL
Streptococcus faecalis
  MIC: > 50 µg/mL
Treponema hyodysenteriae
  MIC: 0.39 µg/mL
Actinomyces pyogenes
  MIC: 0.08 µg/mL
Clostridium perfringens
  MIC: 0.79 µg/mL
Staphylococcus aureus; strain 01A005
  MIC: 3.12 µg/mL
Staphylococcus aureus; strain 01A052
  MIC: 3.12 µg/mL
Staphylococcus aureus; strain 01A110
  MIC: 3.12 µg/mL
Staphylococcus aureus; strain 01A400
  MIC: 6.25 µg/mL
Pseudomonas aeruginosa
  MIC: > 50 µg/mL
[3]
  MIC: > 25 µg/mL

## COC1CCC(OC2CC(C3OC(C)(OC)C(C)CC3C)OC2C2(C)CCC(C3(C)CCC4(CC(OC)C(C)C(C(C)C5OC(O)(CC(=O)[O-])C(C)C(OC6CCC(OC)C(C)O6)C5OC)O4)O3)O2)OC1C.[Na+] (centres unmarked) [CP-70,828 Sodium Salt]
[1]
  MIC: > 50 µg/mL
Klebsiella pneumoniae
  MIC: > 50 µg/mL
Escherischia coli
  MIC: > 50 µg/mL
Streptococcus pyogenes
  MIC: 3.12 µg/mL
Serratia marcescens
  MIC: > 50 µg/mL
Streptococcus faecalis
  MIC: > 50 µg/mL
Staphylococcus aureus; strain 01A005
  MIC: 25 µg/mL
Staphylococcus aureus; strain 01A052
  MIC: 25 µg/mL
Staphylococcus aureus; strain 01A110
  MIC: 25 µg/mL
Staphylococcus aureus; strain 01A400
  MIC: 25 µg/mL
Pseudomonas aeruginosa
  MIC: > 50 µg/mL
